According to ChEMBL document CHEMBL5465560, “Selectivity Literature for EUbOPEN Chemogenomic Library” (2024):

Legend:
[1] = molecular target: Mitogen-activated protein kinase kinase kinase kinase 4 (Homo sapiens, UniProt O95819); assay: Selectivity interaction (Upstate Kinase Profiler service (Millipore)) EUB0000056c MAP4K4; conditions: at 1 µM
SRSF protein kinase 1 = SRSF protein kinase 1 (Homo sapiens, UniProt Q96SB4); assay: Selectivity interaction (Upstate Kinase Profiler service (Millipore)) EUB0000056c SRPK1; conditions: at 1 µM
[2] = molecular target: Phosphatidylinositol 4-phosphate 5-kinase type-1 gamma (Homo sapiens) (UniProt O60331); assay: Selectivity interaction (ProQinase) EUB0000171b PIP5K1C; conditions: at 1 µM
[3] = molecular target: Interleukin-1 receptor-associated kinase 1 (Homo sapiens) (UniProt P51617); assay: Selectivity interaction (KinomeScan (DiscoverX)) EUB0001079a IRAK1; conditions: at 1 µM
[4] = molecular target: T1, Serine/threonine-protein kinase LATS1 (Homo sapiens) (UniProt O95835); assay: Selectivity interaction (ActivX KiNativ screen (kinase selectivity in THP-1 cell lysates)) EUB0000639a LATS1; type: subcellular; conditions: lysate, at 0.2 µM
T1 sequence (whole entry): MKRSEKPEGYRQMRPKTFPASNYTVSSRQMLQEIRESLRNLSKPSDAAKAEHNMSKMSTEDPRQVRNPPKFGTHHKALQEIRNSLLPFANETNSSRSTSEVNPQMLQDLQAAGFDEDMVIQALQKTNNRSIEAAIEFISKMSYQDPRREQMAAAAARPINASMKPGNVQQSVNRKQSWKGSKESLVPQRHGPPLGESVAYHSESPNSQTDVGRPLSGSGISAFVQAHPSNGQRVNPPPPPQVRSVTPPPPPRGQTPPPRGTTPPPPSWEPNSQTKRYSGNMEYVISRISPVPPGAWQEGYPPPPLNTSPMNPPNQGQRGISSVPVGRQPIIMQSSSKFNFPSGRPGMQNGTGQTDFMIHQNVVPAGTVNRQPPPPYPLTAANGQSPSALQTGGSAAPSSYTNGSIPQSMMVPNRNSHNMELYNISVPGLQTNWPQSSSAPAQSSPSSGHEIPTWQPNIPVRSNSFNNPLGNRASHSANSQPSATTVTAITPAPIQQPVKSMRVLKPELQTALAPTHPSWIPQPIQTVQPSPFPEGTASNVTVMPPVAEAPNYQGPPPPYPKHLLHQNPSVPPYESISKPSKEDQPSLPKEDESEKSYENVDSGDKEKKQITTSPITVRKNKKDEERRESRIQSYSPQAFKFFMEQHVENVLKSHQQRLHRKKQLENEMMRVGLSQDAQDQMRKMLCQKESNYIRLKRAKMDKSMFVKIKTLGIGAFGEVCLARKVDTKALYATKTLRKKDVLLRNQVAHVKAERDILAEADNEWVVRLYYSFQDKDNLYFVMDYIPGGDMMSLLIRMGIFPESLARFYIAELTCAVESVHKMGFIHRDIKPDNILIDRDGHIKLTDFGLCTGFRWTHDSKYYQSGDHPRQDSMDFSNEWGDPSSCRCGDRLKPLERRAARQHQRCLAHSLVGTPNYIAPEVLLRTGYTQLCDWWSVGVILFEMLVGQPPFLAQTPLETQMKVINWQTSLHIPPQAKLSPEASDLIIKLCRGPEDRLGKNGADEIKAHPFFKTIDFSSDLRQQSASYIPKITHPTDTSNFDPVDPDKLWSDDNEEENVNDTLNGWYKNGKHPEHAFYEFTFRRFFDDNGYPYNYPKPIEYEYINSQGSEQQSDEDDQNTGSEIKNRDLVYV

[5] = molecular target: T2, Mitogen-activated protein kinase 12 (Homo sapiens) (UniProt P53778); assay: Selectivity interaction (KinomeScan (DiscoverX)) EUB0000607a MAPK12; conditions: at 10 µM
T2 sequence (whole entry): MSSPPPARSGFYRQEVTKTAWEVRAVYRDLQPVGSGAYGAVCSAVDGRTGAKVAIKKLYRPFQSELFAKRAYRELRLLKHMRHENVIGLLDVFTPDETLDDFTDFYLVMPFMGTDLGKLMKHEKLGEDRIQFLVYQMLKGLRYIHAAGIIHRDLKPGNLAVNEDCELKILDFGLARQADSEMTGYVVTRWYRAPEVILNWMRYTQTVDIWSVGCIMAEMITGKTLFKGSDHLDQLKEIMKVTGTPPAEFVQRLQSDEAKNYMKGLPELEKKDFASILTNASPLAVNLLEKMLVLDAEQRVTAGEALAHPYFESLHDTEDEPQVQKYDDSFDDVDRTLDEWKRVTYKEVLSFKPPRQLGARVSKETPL

[6] = molecular target: T3, Tyrosine-protein kinase TXK (Homo sapiens) (UniProt P42681); assay: Selectivity interaction (KinomeScan (DiscoverX)) EUB0000695a TXK; conditions: at 100 nM
T3 sequence (whole entry): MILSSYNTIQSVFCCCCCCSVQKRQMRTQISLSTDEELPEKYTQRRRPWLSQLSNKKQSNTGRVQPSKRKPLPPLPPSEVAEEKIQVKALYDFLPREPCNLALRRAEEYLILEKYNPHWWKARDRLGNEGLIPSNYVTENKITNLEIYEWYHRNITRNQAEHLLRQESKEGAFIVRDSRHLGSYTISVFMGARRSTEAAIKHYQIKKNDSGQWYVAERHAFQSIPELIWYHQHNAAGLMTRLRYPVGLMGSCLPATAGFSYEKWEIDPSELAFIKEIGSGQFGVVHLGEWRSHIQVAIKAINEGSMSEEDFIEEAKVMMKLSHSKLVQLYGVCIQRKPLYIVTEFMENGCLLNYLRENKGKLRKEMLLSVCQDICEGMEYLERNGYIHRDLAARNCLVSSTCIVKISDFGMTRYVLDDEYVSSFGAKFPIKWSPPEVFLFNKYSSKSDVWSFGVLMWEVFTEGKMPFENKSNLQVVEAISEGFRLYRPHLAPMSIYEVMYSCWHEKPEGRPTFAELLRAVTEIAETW

[7] = test system: Tyrosine-protein kinase ABL1 (Homo sapiens), P00519 [F317L]; assay: Selectivity interaction (KinomeScan (DiscoverX)) EUB0000618a ABL1; conditions: at 10 µM
[8] = molecular target: Serine/threonine-protein kinase MRCK alpha (Homo sapiens) (UniProt Q5VT25); assay: Selectivity interaction (KinomeScan (DiscoverX)) EUB0001619a CDC42BPA; conditions: at 1 µM
Sequence of Serine/threonine-protein kinase MRCK alpha (Homo sapiens) (Q5VT25 whole entry): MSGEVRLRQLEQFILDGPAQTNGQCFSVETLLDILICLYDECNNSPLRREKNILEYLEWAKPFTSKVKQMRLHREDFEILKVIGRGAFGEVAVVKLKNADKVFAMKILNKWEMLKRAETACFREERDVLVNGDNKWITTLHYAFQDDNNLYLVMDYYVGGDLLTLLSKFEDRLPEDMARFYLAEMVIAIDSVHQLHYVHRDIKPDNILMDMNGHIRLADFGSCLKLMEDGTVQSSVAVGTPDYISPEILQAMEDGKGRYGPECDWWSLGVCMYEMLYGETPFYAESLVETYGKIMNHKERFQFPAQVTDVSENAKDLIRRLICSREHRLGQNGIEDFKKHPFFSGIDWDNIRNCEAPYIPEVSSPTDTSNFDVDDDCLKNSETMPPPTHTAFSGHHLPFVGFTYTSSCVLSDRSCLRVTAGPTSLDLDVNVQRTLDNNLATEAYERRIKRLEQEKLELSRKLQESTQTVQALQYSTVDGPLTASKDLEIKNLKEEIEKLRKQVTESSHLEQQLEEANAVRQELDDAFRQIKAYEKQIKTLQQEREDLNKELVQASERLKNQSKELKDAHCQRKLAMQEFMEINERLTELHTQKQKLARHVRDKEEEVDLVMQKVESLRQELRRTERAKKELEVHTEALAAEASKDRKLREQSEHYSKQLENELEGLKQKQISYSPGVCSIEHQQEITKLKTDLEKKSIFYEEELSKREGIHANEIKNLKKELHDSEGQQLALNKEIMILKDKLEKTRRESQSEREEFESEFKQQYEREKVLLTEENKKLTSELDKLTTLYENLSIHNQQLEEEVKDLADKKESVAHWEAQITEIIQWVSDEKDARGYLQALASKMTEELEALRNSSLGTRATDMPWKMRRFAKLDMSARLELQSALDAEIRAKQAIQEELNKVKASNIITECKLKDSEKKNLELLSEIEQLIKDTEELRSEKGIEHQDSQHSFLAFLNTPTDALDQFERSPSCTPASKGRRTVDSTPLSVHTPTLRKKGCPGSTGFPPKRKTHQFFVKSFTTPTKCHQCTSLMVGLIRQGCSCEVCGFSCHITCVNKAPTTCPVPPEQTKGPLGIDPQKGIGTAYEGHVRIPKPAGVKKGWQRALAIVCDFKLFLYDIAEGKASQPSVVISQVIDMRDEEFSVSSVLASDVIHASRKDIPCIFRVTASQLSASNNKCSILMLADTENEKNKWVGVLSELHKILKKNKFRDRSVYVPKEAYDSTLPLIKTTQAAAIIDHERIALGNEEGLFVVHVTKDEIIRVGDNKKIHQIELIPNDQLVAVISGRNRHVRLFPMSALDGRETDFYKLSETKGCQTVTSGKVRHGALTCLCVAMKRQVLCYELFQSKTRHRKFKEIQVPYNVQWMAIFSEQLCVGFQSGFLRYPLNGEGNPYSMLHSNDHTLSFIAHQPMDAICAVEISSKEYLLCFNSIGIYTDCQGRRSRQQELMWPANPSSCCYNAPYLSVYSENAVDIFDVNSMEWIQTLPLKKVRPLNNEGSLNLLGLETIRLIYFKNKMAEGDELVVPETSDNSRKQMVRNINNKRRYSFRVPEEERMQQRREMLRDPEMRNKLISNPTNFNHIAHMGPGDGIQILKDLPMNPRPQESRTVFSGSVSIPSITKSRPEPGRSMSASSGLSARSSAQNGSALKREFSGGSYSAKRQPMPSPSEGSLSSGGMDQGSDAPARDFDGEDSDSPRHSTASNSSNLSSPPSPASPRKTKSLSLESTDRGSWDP

Sequence of Tyrosine-protein kinase ABL1 (Homo sapiens), P00519 [F317L] (P00519 whole entry F317L): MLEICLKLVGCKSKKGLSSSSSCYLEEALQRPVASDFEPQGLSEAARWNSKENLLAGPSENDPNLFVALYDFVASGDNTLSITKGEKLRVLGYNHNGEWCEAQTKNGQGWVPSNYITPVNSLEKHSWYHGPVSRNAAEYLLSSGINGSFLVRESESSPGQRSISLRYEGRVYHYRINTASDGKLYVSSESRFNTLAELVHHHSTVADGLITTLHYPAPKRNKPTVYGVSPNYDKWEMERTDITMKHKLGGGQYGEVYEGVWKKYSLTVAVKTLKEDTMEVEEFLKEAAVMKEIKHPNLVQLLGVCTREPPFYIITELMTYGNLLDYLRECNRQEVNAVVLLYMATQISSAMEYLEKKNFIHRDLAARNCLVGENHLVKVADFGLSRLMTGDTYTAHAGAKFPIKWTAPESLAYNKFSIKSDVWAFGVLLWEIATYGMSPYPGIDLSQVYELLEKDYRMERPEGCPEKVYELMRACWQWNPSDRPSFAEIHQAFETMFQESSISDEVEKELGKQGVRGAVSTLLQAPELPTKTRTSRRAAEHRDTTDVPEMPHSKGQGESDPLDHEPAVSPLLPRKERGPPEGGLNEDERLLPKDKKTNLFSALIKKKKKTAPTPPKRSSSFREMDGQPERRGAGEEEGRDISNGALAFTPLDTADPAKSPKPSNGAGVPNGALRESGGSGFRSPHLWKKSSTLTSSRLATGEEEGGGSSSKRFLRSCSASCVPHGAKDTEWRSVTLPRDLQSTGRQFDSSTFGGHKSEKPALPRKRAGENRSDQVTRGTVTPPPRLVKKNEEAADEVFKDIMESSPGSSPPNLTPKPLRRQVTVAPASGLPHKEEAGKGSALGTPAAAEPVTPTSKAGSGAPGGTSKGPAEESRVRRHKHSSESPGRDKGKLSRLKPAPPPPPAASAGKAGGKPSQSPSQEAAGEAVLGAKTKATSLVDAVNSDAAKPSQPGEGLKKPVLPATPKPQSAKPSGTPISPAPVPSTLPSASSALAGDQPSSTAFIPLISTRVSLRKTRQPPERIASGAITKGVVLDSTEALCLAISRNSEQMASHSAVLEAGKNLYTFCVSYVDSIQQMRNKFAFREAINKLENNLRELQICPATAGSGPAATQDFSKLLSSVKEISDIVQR
Sequence of SRSF protein kinase 1 (Q96SB4 whole entry): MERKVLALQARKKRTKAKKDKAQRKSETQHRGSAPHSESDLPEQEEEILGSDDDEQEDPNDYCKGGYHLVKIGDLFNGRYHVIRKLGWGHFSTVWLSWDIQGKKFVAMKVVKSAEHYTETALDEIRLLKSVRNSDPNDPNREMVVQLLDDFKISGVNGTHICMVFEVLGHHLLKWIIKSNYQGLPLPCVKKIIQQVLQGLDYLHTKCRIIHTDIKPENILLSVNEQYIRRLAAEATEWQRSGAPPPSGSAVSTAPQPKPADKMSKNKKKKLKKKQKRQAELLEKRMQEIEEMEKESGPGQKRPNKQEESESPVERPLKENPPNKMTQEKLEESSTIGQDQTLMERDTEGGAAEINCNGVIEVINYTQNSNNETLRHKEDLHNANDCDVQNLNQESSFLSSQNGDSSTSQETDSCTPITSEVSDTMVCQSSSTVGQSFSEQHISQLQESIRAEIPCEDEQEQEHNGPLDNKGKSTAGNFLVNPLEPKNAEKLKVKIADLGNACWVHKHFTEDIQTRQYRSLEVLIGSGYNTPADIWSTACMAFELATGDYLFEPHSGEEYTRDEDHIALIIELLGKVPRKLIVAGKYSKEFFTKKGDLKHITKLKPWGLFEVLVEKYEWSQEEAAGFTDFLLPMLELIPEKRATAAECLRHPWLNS
Sequence of Mitogen-activated protein kinase kinase kinase kinase 4 (O95819 2-1239 limits assumed): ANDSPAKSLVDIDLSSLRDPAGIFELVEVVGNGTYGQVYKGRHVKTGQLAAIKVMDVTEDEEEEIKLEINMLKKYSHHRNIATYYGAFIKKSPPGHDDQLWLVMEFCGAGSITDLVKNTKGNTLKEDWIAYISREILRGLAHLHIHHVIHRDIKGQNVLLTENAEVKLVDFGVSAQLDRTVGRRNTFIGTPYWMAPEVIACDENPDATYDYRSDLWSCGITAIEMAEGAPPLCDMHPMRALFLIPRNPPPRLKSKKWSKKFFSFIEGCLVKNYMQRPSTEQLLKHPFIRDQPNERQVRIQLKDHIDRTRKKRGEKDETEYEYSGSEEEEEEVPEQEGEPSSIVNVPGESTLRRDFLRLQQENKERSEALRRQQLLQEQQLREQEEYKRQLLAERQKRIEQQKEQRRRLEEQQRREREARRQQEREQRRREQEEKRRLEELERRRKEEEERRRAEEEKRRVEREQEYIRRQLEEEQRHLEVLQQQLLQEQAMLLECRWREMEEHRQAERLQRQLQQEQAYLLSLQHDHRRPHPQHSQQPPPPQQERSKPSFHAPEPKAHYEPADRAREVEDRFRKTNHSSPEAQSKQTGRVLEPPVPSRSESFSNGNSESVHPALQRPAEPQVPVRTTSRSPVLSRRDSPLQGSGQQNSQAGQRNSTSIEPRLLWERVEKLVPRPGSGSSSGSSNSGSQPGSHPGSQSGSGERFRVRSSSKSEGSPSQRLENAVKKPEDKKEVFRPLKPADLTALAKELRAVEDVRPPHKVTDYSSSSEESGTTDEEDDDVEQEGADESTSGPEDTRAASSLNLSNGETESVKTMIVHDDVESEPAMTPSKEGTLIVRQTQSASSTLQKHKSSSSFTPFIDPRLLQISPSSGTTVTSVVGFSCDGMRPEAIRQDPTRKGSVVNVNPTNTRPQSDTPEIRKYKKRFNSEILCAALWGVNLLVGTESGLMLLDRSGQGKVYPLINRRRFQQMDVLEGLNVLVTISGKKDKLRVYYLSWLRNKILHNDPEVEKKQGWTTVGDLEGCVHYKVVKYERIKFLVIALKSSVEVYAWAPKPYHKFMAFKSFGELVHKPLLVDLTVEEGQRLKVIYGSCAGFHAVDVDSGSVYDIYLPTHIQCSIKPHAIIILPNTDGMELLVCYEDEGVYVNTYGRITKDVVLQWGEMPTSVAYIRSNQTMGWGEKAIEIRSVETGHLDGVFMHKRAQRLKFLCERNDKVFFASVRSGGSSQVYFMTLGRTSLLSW

`Cc1ccc(-c2ccc3c(ccc4sc5c(c43)NC[C@@H](C)NC5=O)n2)cn1` showed a % of inhibition [1] of 43% and a % of inhibition (SRSF protein kinase 1) of 34%.

With `C=CC(=O)Nc1cccc(C(=O)Nc2ccc(Nc3cc(-c4[nH]c(SC)nc4C)ccn3)cc2)c1` the % of control [2] was 107%.

For `Nc1cnc(N2CCc3cc(S(=O)(=O)Nc4c(F)cc(Cl)cc4F)cc(N4CCCC4=O)c32)nc1` [TP-020n], the % of control [3] was 100%.

`CC[C@@H]1[C@H](F)C(=O)N[C@@H]1COc1nccc2cc(C(N)=O)c(OC)cc12` [ZIMLOVISERTIB] showed a % of inhibition [4] of -82.2%.

With `CNC(=O)Nc1ccc(-c2nc(N3CC4CCC(C3)O4)c3cnn(C4CCC5(CC4)OCCO5)c3n2)cc1` the % of control [5] was 54%.

`Cc1cc(F)c(C(=O)Nc2cccc(-c3nncn3C(C)C)n2)cc1-n1cnc(C2CC2)c1` showed a % of control [6] of 98%.

`O[C@H]1CC[C@H](Nc2ncc3nc(Nc4c(F)cc(F)cc4F)n([C@H]4CCOC4)c3n2)CC1` was tested, and the % of control [7] was 30%.

For `N#Cc1cccc(-c2c[nH]c3ncnc(N4CCOCC4)c23)c1`, the % of control [8] was 100%.
